This is an account of results in US20250101052A1, “COMPOUND FOR EGFR KINASE INHIBITOR, COMPOSITION, AND USE THEREOF” (INNOVATION INSTITUTE FOR ARTIFICIAL INTELLIGENCE IN …, priority 2021, published 2025).

Series [1] concerns the target Aurora B (Homo sapiens (Human), UniProt Q96GD4). In words: Activity of other kinases: Aurora B (HTRF). Type of series: biochemical. The protocol: Embodiment 5 Activity of Other Kinases
(1) Preparation of 1×kinase reaction buffer:
1 time the volume of 5×kinase reaction buffer and 4 times the volume of water; 5 mM MgCl2; 1 mM DTT.
(2) Screening of Compounds:
a) The compound was diluted with DMSO in a dilution plate.
b) The compound was diluted 40 times into the 1× kinase reaction buffer and oscillated on an oscillator for 20 minutes.
c) 2× was prepared using a 1× enzyme reaction buffer.
d) 2 μL of kinase was added to each well of the reaction plate.
e) 1 μL of the compound diluted in the buffer was added to each well, and the plate was sealed with a sealing film, centrifuged at 1000 rpm for 60 seconds and incubated at 25° C. for 10 minutes.
f) A mixture of 2.5×S2 &TK-substrate-biotin and ATP was prepared using the 1× enzyme reaction buffer, and 2 μL of the S2 &TK-substrate-biotin/ATP mixture was added to the reaction plate.
G) The plate was sealed with a sealing film, centrifuged at 1000 rpm for 60 seconds and incubated at 25° C. for 50&40&30&20 minutes.
h) 4× Sa-XL 665 was prepared using an HTRF detection buffer.
i) 5 μL of Sa-XL 665 and 5 μL of STK/TK-antibody-Cryptate were added to each well, centrifugation was conducted at 1000 rpm for 60 seconds, and incubation was conducted at 25° C. for 1 hour.
j) The fluorescence signals at 615 nm (Cryptate) and 665 nm (XL665) were read using the BGM microplate reader.
(TR-FRET usually uses a lanthanide donor and a delayed reading to cut background.)

Series [2] in a line: Stability testing of liver microsomes, mouse. The format is in vitro ADME. To be noted: for CLint scaled at 1 µM / half-life at 1 µM: pH 7.41, mouse liver microsomes. The protocol: (§1) 1. 100 mM K-buffer was preheated with 5 mM MgCl2 with a pH value of 7.41.
(§2) 2. Preparation of testing solution
(§3) 0.5 mM solution A: 5 μL of the 10 mM compound stock solution was added for reference to 95 μL of ACN.
(§4) 1.5 μM microsome solution (0.75 mg/mL): 1.5 μL of a 500 μM solution and 18.75 μL of 20 mg/mL liver microsomes were added to 479.75 μL of K/Mg-buffer.
(§5) 3. The K/Mg-buffer NADPH solution (6 mM, 5 mg/mL) was prepared.
(§6) 4. […] of human, monkey, and mouse liver microsomes with a 0.75 mg/mL concentration were added to detection plates at different time points (0, 15, 30, 45, and 60 minutes).
(§7) 5. Pre-incubation was conducted at 37° C. for 5 minutes.
(§8) 6. At 0 min, before 15 μL of the NADPH stock solution (6 mM) was added, 150 μL of ACN containing IS was added.
(§9) NADPH was dissolved in the K/mg buffer to prepare a 6 mm and 5 mg/mL NADPH stock solution.
(§10) 7. At other time points, 15 μL of the NADPH stock solution (6 mM) was added to the well for starting the reaction and timing.
(§11) 8. 150 μL of ACN containing IS was added to the corresponding plate wells at 15 min, 30 min, 45 min, and 60 min, respectively, and the reaction was stopped.
(§12) 9. After quenching, shaking well was conducted for 10 minutes (600 rpm), and centrifugation was conducted at 6000 rpm for 15 minutes.
(§13) 10. 80 μL of the supernatant in each well was transferred to a 96-well sample plate (containing 140 μL of pure water) for LC/MS analysis.

Series [3] can be described thus: Stability testing of liver microsomes, monkey. The note with it: for CLint scaled at 1 µM / half-life at 1 µM: pH 7.41, monkey liver microsomes. Type of series: in vitro ADME. The protocol:
as §1, §2, §3, §4, §5, §6, §7, §8, §9, §10, §11, §12, §13

Series [4] relates to Ba/F3-EGFR^L858R/T790M/C797S nude mouse transplantation tumors. In words: In-vivo efficacy in Ba/F3-EGFR^L858R/T790M/C797S xenograft (CDX). Also on record: species or system BALB/c nude mice. The note with it: 13 days. The protocol:
In-vivo efficacy: The compounds of the present invention have excellent in-vivo anti-tumor efficacy and are dose-dependent
In-vivo efficacy experiments were conducted on BALB/c nude mice subcutaneously implanted with Ba/F3-EGFR^L858R/T790M/C797S derived xenograft (CDX). BALB/c nude mice, female, 6-8 weeks old, weighing approximately 18-22 grams, were raised in an SPF-level environment with separate ventilation for each cage (5 mice per cage). All cages, beddings, and water were disinfected before use. All the animals were free to access standard certified commercial laboratory diets. A total of 48 mice were purchased from Beijing Vital River for research. Each mouse was subcutaneously implanted with […] in the right axilla for tumor growth. The experiment began when the average tumor volume reached about 70 cubic millimeters. The experimental compounds were for oral administration daily, with compound 24 (45 mg/kg, 75 mg/kg respectively) and compound 51 (100 mg/kg) administered continuously for 13 days.

Aurora B, sequence (Q96GD4 whole entry): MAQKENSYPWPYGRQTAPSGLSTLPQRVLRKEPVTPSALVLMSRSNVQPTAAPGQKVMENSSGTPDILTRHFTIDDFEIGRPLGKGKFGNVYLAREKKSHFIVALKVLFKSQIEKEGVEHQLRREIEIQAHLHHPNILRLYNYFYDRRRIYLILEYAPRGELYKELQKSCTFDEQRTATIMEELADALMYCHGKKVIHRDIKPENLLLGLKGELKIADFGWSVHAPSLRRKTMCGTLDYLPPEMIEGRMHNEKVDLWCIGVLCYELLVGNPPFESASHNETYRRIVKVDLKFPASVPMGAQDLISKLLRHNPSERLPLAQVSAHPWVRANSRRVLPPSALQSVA

For `CCc1cc(Nc2ncc(Cl)c(Nc3ccc(C)c(C)c3P(C)(C)=O)n2)c(OC)cc1N1CCC(N2CCN(C)CC2)CC1` [Comparative Compound A, reference compound], in series [1], the half-maximal inhibitory concentration (IC50) (as a rule, the concentration that gives 50% inhibition) is 2010 nM. The intrinsic clearance (CLint scaled) (commonly the rate of metabolic loss divided by the concentration) at 1 µM was 18.2 mL/min/kg in series [2] and 52 mL/min/kg in series [3]. Also, the half-life (usually how long it takes for the measured level to halve) at 1 µM in series [2] was found to be 76.1 min; in series [3], 26.7 min.

In the case of `CCc1cc(Nc2ncc(Cl)c(Nc3ccc(C)c(C)c3P(C)(C)=O)n2)c(OC)cc1N1CC2(CCN(C)CC2)C1` [Compound 24, (6-((5-Chloro-2-((5-ethyl-2-methoxy-4-(7-methyl-2,7-diazaspiro[3.5]non-2-yl)phenyl)amino)pyrimidin-4-yl)amino)-2,3-dimethylphenyl)dimethylphosphine oxide], half-maximal inhibition in series [1] (IC50) was put at 410 nM. In addition, the “stability in liver microsomes (in words)” value in series [2] (mice) and in series [3] (monkeys) was “good stability” in each case. Further, the CLint scaled at 1 µM in series [2] was less than 9.6 mL/min/kg; in series [3] it was 27.7 mL/min/kg. Moreover, the half-life at 1 µM was greater than 145 min in series [2] and 50 min in series [3]. The TGI % was 84.74% in series [4] (45 mg/kg/day oral) and 99.06% in series [4] (75 mg/kg/day oral).

In the case of `CCc1cc(Nc2ncc(Cl)c(Nc3ccc(C)c(C)c3P(C)(C)=O)n2)c(OC)cc1N1CCC(N2C[C@H]3CC[C@@H](C2)N3C)CC1` [Compound 51, (6-((5-chloro-2-((5-ethyl-2-methoxy-4-(4-((1R,5S)-8-methyl-3,8-diazabicyclo[3.2.1]octan-3-yl)piperidin-1-yl)phenyl)amino)pyrimidin-4-yl)amino)-2,3-dimethylphenyl)dimethylphosphine oxide], in series [4] (100 mg/kg/day oral), the TGI % worked out at 83.07%.
